Entries after “also recorded” stand apart in the source; their conditions may differ.
Assays:
Notch1 protein = assay: TTFields-mediated degradation of Notch1 protein with degradation pathway inhibitors (FIG. 11E); format: cell-based; settings: TTFields treatment
Description: Reduction of Notch1 level by TTFields was also confirmed by immunofluorescence staining (FIGS. 11C and D). The intracellular protein degradation mechanism primarily involves proteasomal and lysosomal degradation pathways. To further elucidate the mechanism of TTFields-mediated degradation of Notch1 protein, lysosomal inhibitor Leupeptin and proteasomal inhibitor MG132 were employed (FIG. 11E). […] Lysosomal degradation of proteins, particularly those located on cell membrane such as Notch1, often involves cell membrane.
Protein levels were evaluated through Western Blot analysis, following the established protocol. The antibodies employed in the study are listed below. Rabbit notch1 (Abcam, ab52627), Rabbit Cleaved Notch1 (CST, 4147S), Mouse anti-GAPDH (Abclonal, A19056), Rabbit anti-Tubulin (Abclonal, AC015), Rabbit anti-Hes1 (ab108937), rabbit anti-Hes5 (Abclonal A16237), rabbit anti-Hey1 (Abclonal A16110), rabbit anti-Myc (Selleck, A5011), anti-rabbit CD133 (Abcam, ab19898), anti-mouse Sox2 (Abcam, ab79351), anti-Rabbit Nestin (Abcam), and Anti-mouse lamp1.

cells = assay: Combination of Notch1 inhibitor with an alternating electric field (FIGS. 4, 8); format: cell-based
U87 = assay: Cell viability of glioblastoma cell line U87 (FIGS. 6, 7); format: cell-based
Description: (§1) For short-term experiments, such as detecting the degradation process of glioblastoma cells under TTFields, U87, U251, LN229, and T98 cell suspensions (450 μL, 100,000 cells per well) were evenly spread on 24 mm cell culture slides. After overnight incubation, the cells were transferred to in vitro dishes and supplemented with 2 mL fresh culture medium. The treatment frequency was 200 kHz, with a treatment field strength of 1.62 V/cm RMS, for a duration of 24 hours. For long-term combination experiments, involving the combined use of RO4929097 or Notch1 gene knockdown with TTFields, cells (450 μL, 40,000 cells per well) were treated with a field strength of 1.19 V/cm RMS and a frequency of 200 kHz for 72 hours. The concentration of RO4929097 drug was varied. For organoid experiments, 3-5 GBOs were added to each well, and fresh GBO medium was replaced. The treatment field strength was 1.19 V/cm RMS, with a frequency of 200 kHz, for treatment durations of 24 and 48 hours.

U251 = assay: Cell viability of glioblastoma cell line U251 (FIGS. 6, 7); format: cell-based
Description: as §1

glioma cells [1] = assay: Sensitization of glioma cells to temozolomide (FIGS. 7, 10E); format: cell-based; settings: Notch1 inhibitor in combination with temozolomide
glioma cells [2] = assay: Clonogenic (colony formation) assay after treatment (FIGS. 5, 10D); format: cell-based
Description: as §1, with “48 hours. Following treatment with TTFields and corresponding conditions, 500-1000 cells were selected from each group and seeded in 6-well dishes. The cells were cultured at 37 degrees Celsius with 5% CO2 for a period of 7-10 days, with medium replacement every 3 days. […]” for “48 hours.”

glioblastoma = settings: cited from earlier work
[3] = system: glioma cell lines including U87, U251, and LN229; assay: Validation assays with TTFields in glioma cell lines (EdU incorporation, cell counting; FIGS. 10A-C); format: cell-based
Description: It was first analyzed whether Notch1 antagonization sensitized glioma cell lines to TTFields treatment. Validation assays were conducted across multiple glioma cell lines including U87, U251, and LN229. The Notch1 inhibitor RO4929097 was used to probe whether it synergizes with TTFields. […] In the validation assays, experimental cohorts were divided into four groups: control (DMSO), TTFields treatment alone, Notch1 inhibitor RO4929097, and TTFields plus RO4929097.
as §1

[4] = system: patient-derived glioblastoma organoids (GBOs); assay: EdU staining of patient-derived glioblastoma organoids with TTFields (FIG. 13I); format: cell-based
Description: as §1

[5] = 5 μM Notch1 inhibitor alone, FIG. 6
[6] = 5 μM Notch1 inhibitor alone, FIG. 7
[7] = 20 μM Notch1 inhibitor alone, FIG. 6
[8] = 20 μM Notch1 inhibitor alone, FIG. 7
[9] = 250 μM Temozolomide and 5 μM Notch1 inhibitor concomitant, FIG. 7
[10] = 250 μM Temozolomide and 20 μM Notch1 inhibitor concomitant, FIG. 7
[11] = TTFields and 5 μM Notch1 inhibitor concomitant, FIG. 6
[12] = TTFields and 20 μM Notch1 inhibitor concomitant, FIG. 6
[13] = phase I and II clinical trials for glioblastoma

CC(=O)N[C@@H](CC(C)C)C(=O)N[C@@H](CC(C)C)C(=O)N[C@H](C=O)CCCNC(=N)N [Leupeptin]
effect on TTFields-induced degradation of Notch1 protein (Notch1 protein): blocked

C[C@H](NC(=O)Cc1cc(F)cc(F)c1)C(=O)N[C@H](C(=O)OC(C)(C)C)c1ccccc1 [DAPT]
therapeutic efficacy of the alternating electric field (cells; DAPT combined with an alternating electric field, FIG. 8): enhances the therapeutic efficacy

Cn1nnc2c(C(N)=O)ncn2c1=O [Temozolomide]
viability at 250 µM (U87; Homo sapiens, U-87 MG, 250 μM Temozolomide alone, FIG. 7): 75%
viability at 250 µM (U251; Homo sapiens, U-251, 250 μM Temozolomide alone, FIG. 7): 75%

CC(C)(C(=O)NCC(F)(F)C(F)(F)F)C(=O)N[C@@H]1C(=O)Nc2ccccc2-c2ccccc21 [RO4929097]
sensitization to / killing by temozolomide (TMZ) (glioma cells [1]): did not sensitize
sensitization to / killing by temozolomide (TMZ) (glioma cells [1]; listed as Notch1 inhibitor): no effect
sensitization to / killing by temozolomide (TMZ) (glioma cells [1]; listed as RO): does not enhance killing
cell viability (U87; [5]): 80%
cell viability (U87; [6]): no change in viability
cell viability (U87; [7]): around 60%
cell viability (U87; [8]): around 80%
cell viability (U87; [9]): no change in viability
cell viability (U87; [10]): no change in viability
cell viability (U87; [11]): 20%
cell viability (U87; [12]): 20%
colonogenic abilities following re-seeding after treatment (glioma cells [2]; Notch1 inhibitor alone, FIG. 5): no significant impact
clonogenic ability / long-term proliferative potential (glioma cells [2]; Notch1 inhibitor combined with TTFields / alternating electric field, re-seeding after treatment): synergy; also recorded: sensitization effect
safety profile (glioblastoma; glioblastoma / recurrent GB patients): favorable safety profile
blood-brain barrier penetration (glioblastoma; [13]): favorable blood-brain barrier penetration
expression of Notch1 downstream genes in tumor cells (glioblastoma; [13]): reduce expression of Notch1 downstream genes
sensitization of alternating electric field therapy (cells; RO4929097 combined with an alternating electric field, low-intensity, long duration, FIGS. 4 and 5): sensitizes alternating electric field therapy
cytotoxicity in EdU incorporation assays ([3]; RO4929097 alone, FIGS. 10A and B): minimal cytotoxicity
therapeutic sensitization in EdU incorporation assays ([3]; RO4929097 combined with TTFields, FIGS. 10A and B): noticeable enhancement in therapeutic sensitization
growth suppression by TTFields ([3]; combined with TTFields, FIG. 10 legend): enhances growth suppression
cell viability (U251; [5]): no change in viability
cell viability (U251; [6]): no change in viability
cell viability (U251; [7]): around 60%
cell viability (U251; [8]): around 80%
cell viability (U251; [9]): no change in viability
cell viability (U251; [10]): no change in viability
cell viability (U251; [11]): 20%
cell viability (U251; [12]): 20%
cytotoxicity by Edu staining in GBOs ([4]; Notch1 inhibitor alone): no apparent cytotoxicity
effect with TTFields by Edu staining in GBOs ([4]; combined with TTFields): clear synergistic effect

— patent US20250213585A1, “COMPOSITIONS AND METHODS OF A CONCOMITANT THERAPY OF ALTERNATING ELECTRIC FIELDS AND NOTCH-1 INHIBITOR” (NOVOCURE GMBH, priority 2023, published 2025)
